The source of these data is US6894075B2, “4′-demethyl-4′-O-substituted-1-deoxypodophyllotoxin derivative and geometric isomer thereof, process for the preparation thereof and anti-cancer composition comprising the same” (priority 2000, dated 2005).

Where only a bound is given, the exact number is not on record here.

For one assay, the system named is A549 cell. Kind of assay: Cytotoxicity test (SRB method) for A549 cells. The assay is classed as cell-based, human. As to conditions: A549, SRB, 48 hours incubation, Table 2. The source says: (§1) Human lung carcinomas A549 and […] were used for determining cytotoxicity of the compounds of the present invention according to the Sulfrhodamine-B (SRB) method which was developed by NCI in 1989 in order to determine in vitro anticancer activity of drugs.
(§2) Cells to be used in the experiment were separated from a surface using 0.5% Trypsin-EDTA solution and suspended in a density of 5×10^4 cell/ml therein. The cell suspension was introduced into a 96-well plate in an amount of 180/well and incubated for 24 hours in a 5% CO2 incubator of 37° C. Samples were dissolved in dimethylsulfoxide and then diluted by water distilled in advance for three times just before the experiment. Forty-one (41) samples were prepared into 4 types of final concentrations, i.e., 0.1, 0.03, 0.01 and 0.003 mg per ml of the medium. The diluted sample solutions were added to the 96-well plate in the amount of 20 μl/well and incubated for 48 hours in a CO2 incubator of 37° C. At the time of adding the samples, Tz (Time zero) plate was taken. The medium was removed from the Tz plate and each of the plates after incubation were completed. Ten (10)% […] (TCA) was added in the amount of […], and allowed to stand for 1 hour at 4° C. to fix the cells on the bottom surface of the plate. After the cells were fixed, the plate was washed five to six times with water to completely remove the remaining TCA solution and then dried at room temperature to completely remove the moisture. To the fully dried plate was introduced a dye solution in the amount of […] in which 0.4% SRB was dissolved in 1% acetic acid solution. […] After the dyeing process, the plate was dried again at room temperature. 100 ml of 10 mM Tris solution was added thereto in order to dissolve the dye, and then O.D. (optical density) was determined by microplate reader at 520 nm.
(§3) ED50 values for cancer cells were calculated as follows. The amount of SRB protein was analyzed at the time when incubation started by the addition of the sample. This amount was named time zero (Tz). The O.D. value obtained from a group which was not treated by the sample was named Control group (C) and the O.D. value obtained from a group which was treated by the sample was named Test group (T).
(§4) The degree of cytotoxicity of the compounds was calculated from Tz, C and T values according to the following equation.
(§5) That is, in the case of Tz≧T, the degree was calculated by
(§6) (T−Tz)/(C−Tz)×100(%), and
(§7) • in the case of Tz<T, the degree was calculated by […].
(§8) From the values thus obtained, ED50 value which is defined as the concentration at which growth of the cancer cell is inhibited by 50% was calculated using the regression function of Excel program.
A general note: Sulforhodamine B stains cellular protein and so reports cell mass.

The test system of another assay is SK-MEL-2 cell. Kind of assay: Cytotoxicity test (SRB method) for SK-MEL-2 cells. The assay is classed as cell-based, human. As to conditions: SK-MEL-2, SRB, 48 hours incubation.
Description: as §1, §2, §3, §4, §5, §6, §7, §8

In the case of `CC/C=C\C/C=C\C/C=C\CCCCCCCC(=O)Oc1c(OC)cc(C2c3cc4c(cc3CC3COC(=O)C32)OCO4)cc1OC` (stereo not drawn) [Compound 1c-22, 4′-demethyl-4′-O-(cis-9′,12′,15′-octadecatrienoyl)-1-deoxypodophyllotoxin], the “ED50(mg/mL) for A549” value with A549 cell is on record as 0.084 mg/mL. For the same compound, the “ED50(mg/mL) for SK-MEL-2” value in the assay on SK-MEL-2 cell came out at 0.048 mg/mL.
For `COc1cc(C2c3cc4c(cc3CC3COC(=O)C32)OCO4)cc(OC)c1OC(=O)/C=C(C)/C=C/C=C(C)/C=C/C1=C(C)CCCC1(C)C` (centres unmarked) [Compound 1c-32, 4′-demethyl-4′-O-retinoyl-1-deoxypodophyllotoxin], in the assay on A549 cell, the “ED50(mg/mL) for A549” value is 2.130 mg/mL. The “ED50(mg/mL) for SK-MEL-2” value with SK-MEL-2 cell is recorded as 0.387 mg/mL.
For the compound `CCCCC/C=C\C/C=C\CCCCCCCC(=O)Oc1c(OC)cc(C2c3cc4c(cc3CC3COC(=O)C32)OCO4)cc1OC` (stereo not drawn) [Compound 1c-20, 4′-demethyl-4′-O-(cis-9′,12′-octadecadienoyl)-1-deoxypodophyllo-toxin], the “ED50(mg/mL) for A549” value in the assay with A549 cell was 0.090 mg/mL. In the assay on SK-MEL-2 cell, the “ED50(mg/mL) for SK-MEL-2” value was 0.030 mg/mL.
`CCC(=O)Oc1c(OC)cc(C2c3cc4c(cc3CC3COC(=O)C32)OCO4)cc1OC` (centres unmarked) [Compound 1c-4, 4′-demethyl-4′-O-propanoyl-1-deoxypodophyllotoxin]: the “ED50(mg/mL) for A549” value in the assay with A549 cell is 0.004 mg/mL. In addition, the “ED50(mg/mL) for SK-MEL-2” value in the assay with SK-MEL-2 cell came out at 0.010 mg/mL.
The like results for `CCCCC/C=C\C/C=C\C/C=C\CCCCC(=O)Oc1c(OC)cc(C2c3cc4c(cc3CC3COC(=O)C32)OCO4)cc1OC` (stereo not drawn) [Compound 1c-23, 4′-demethyl-4′-O-(cis-6′,9′,12′-octadecatrienoyl)-1-deoxypodophyllotoxin] were, in that order, 0.085 mg/mL and 0.041 mg/mL.
With `CCCCCCCCCCCCCCCC(=O)Oc1c(OC)cc(C2c3cc4c(cc3CC3COC(=O)C32)OCO4)cc1OC` (centres unmarked) [Compound 1c-13, 4′-demethyl-4′-O-hexadecanoyl-1-deoxypodophyllotoxin], the “ED50(mg/mL) for A549” value in the assay with A549 cell came out at 0.268 mg/mL. For the same compound, in the assay with SK-MEL-2 cell, the “ED50(mg/mL) for SK-MEL-2” value is recorded as 0.290 mg/mL.
The like results for `CCCCCC/C=C/CCCCCCCCCC(=O)Oc1c(OC)cc(C2c3cc4c(cc3CC3COC(=O)C32)OCO4)cc1OC` (stereo not drawn) [Compound 1c-19, 4′-demethyl-4′-O-(trans-11′-octadecenoyl)-1-deoxypodophyllo-toxin] were, in that order, 1.010 mg/mL and 0.253 mg/mL.
The corresponding values for `COc1cc(C2c3cc4c(cc3CC3COC(=O)C32)OCO4)cc(OC)c1OC(=O)CCCCC(=O)O` (centres unmarked) [Compound 1c-33, 4′-demethyl-4′-O-(5′-carboxy-pentanoyl)-1-deoxypodophyllotoxin] are 0.258 mg/mL and 0.062 mg/mL.
The like results for `CCCCCCCC/C=C/CCCCCCCC(=O)Oc1c(OC)cc(C2c3cc4c(cc3CC3COC(=O)C32)OCO4)cc1OC` (stereo not drawn) [Compound 1c-17, 4′-demethyl-4′-O-(trans-9′-octadecenoyl)-1-deoxypodophyllo-toxin] were, in that order, 0.367 mg/mL and 0.550 mg/mL.
For the compound `COc1cc(C2c3cc4c(cc3CC3COC(=O)C32)OCO4)cc(OC)c1OC(=O)CCCCCCC(=O)O` (centres unmarked) [Compound 1c-34, 4′-demethyl-4′-O-(7′-carboxy-heptanoyl)-1-deoxypodophyllotoxin], the “ED50(mg/mL) for A549” value in the assay with A549 cell is listed as 0.175 mg/mL. In the assay with SK-MEL-2 cell, the “ED50(mg/mL) for SK-MEL-2” value is given as 0.066 mg/mL.
As for `CC/C=C\C/C=C\C/C=C\C/C=C\C/C=C\C/C=C\CCC(=O)Oc1c(OC)cc(C2c3cc4c(cc3CC3COC(=O)C32)OCO4)cc1OC` (stereo not drawn) [Compound 1c-31, 4′-demethyl-4′-O-(cis-4′,7′,10′,13′,16′,19′-docohexaenoyl)-1-deoxypodophyllotoxin], the “ED50(mg/mL) for A549” value in the assay with A549 cell is listed as 0.119 mg/mL. Further, the “ED50(mg/mL) for SK-MEL-2” value with SK-MEL-2 cell amounted to 0.035 mg/mL.
On to `COc1cc(C2c3cc4c(cc3CC3COC(=O)C32)OCO4)cc(OC)c1OC(=O)CCCCCCCCC(=O)O` (centres unmarked) [Compound 1c-35, 4′-demethyl-4′-O-(9′-carboxy-nonanoyl)-1-deoxypodophyllotoxin], for which the “ED50(mg/mL) for A549” value in the assay with A549 cell stood at 0.014 mg/mL. Moreover, the “ED50(mg/mL) for SK-MEL-2” value with SK-MEL-2 cell is 0.015 mg/mL.
Turning to `CCCCCCCCCCCCCC(=O)Oc1c(OC)cc(C2c3cc4c(cc3CC3COC(=O)C32)OCO4)cc1OC` (centres unmarked) [Compound 1c-12, 4′-demethyl-4′-O-tetradecanoyl-1-deoxypodophyllotoxin], the “ED50(mg/mL) for A549” value with A549 cell was found to be 0.041 mg/mL. The “ED50(mg/mL) for SK-MEL-2” value with SK-MEL-2 cell is 0.050 mg/mL.
In the case of `CCCCCCCC/C=C\CCCCCCCCCC(=O)Oc1c(OC)cc(C2c3cc4c(cc3CC3COC(=O)C32)OCO4)cc1OC` (stereo not drawn) [Compound 1c-25, 4′-demethyl-4′-O-(cis-11′-eicosenoyl)-1-deoxypodophyllotoxin], the “ED50(mg/mL) for A549” value in the assay on A549 cell is greater than 5 mg/mL. Moreover, in the assay with SK-MEL-2 cell, the “ED50(mg/mL) for SK-MEL-2” value is given as greater than 5 mg/mL.
On to `CCCC(=O)Oc1c(OC)cc(C2c3cc4c(cc3CC3COC(=O)C32)OCO4)cc1OC` (centres unmarked) [Compound 1c-5, 4′-demethyl-4′-O-butanoyl-1-deoxypodophyllotoxin], for which the “ED50(mg/mL) for A549” value in the assay with A549 cell was 0.005 mg/mL. For the same compound, the “ED50(mg/mL) for SK-MEL-2” value in the assay on SK-MEL-2 cell is listed as 0.017 mg/mL.
Consider `COc1cc(C2c3cc4c(cc3CC3COC(=O)C32)OCO4)cc(OC)c1OC(=O)CCCCCCCCCCCCC(=O)O` (centres unmarked) [Compound 1c-37, 4′-demethyl-4′-O-(13′-carboxy-tridecanoyl)-1-deoxypodophyllotoxin], for which the “ED50(mg/mL) for A549” value in the assay with A549 cell was 0.019 mg/mL. In the assay on SK-MEL-2 cell, the “ED50(mg/mL) for SK-MEL-2” value was 0.070 mg/mL.
Take `CCCCCCCC/C=C\CCCCCCCC(=O)Oc1c(OC)cc(C2c3cc4c(cc3CC3COC(=O)C32)OCO4)cc1OC` (stereo not drawn) [Compound 1c-16, 4′-demethyl-4′-O-(cis-9′-octadecenoyl)-1-deoxypodophyllo-toxin]: the “ED50(mg/mL) for A549” value in the assay with A549 cell turned out to be 0.179 mg/mL. In the assay with SK-MEL-2 cell, the “ED50(mg/mL) for SK-MEL-2” value is given as 0.159 mg/mL.
For `COc1cc(C2c3cc4c(cc3CC3COC(=O)C32)OCO4)cc(OC)c1OC(=O)CCCCCCCCCCC(=O)O` (centres unmarked) [Compound 1c-36, 4′-demethyl-4′-O-(11′-carboxy-undecanoyl)-1-deoxypodophyllotoxin], the “ED50(mg/mL) for A549” value in the assay with A549 cell came to 0.046 mg/mL. The “ED50(mg/mL) for SK-MEL-2” value with SK-MEL-2 cell was 0.068 mg/mL.
As for `CCCCCCCC(=O)Oc1c(OC)cc(C2c3cc4c(cc3CC3COC(=O)C32)OCO4)cc1OC` (centres unmarked) [Compound 1c-8, 4′-demethyl-4′-O-octanoyl-1-deoxypodophyllotoxin], in the assay with A549 cell, the “ED50(mg/mL) for A549” value is 0.009 mg/mL. Besides, the “ED50(mg/mL) for SK-MEL-2” value in the assay on SK-MEL-2 cell stood at 0.030 mg/mL.
In the case of `COc1cc(C2c3cc4c(cc3CC3COC(=O)C32)OCO4)cc(OC)c1OC(=O)c1ccccc1` (centres unmarked) [Compound 1c-10, 4′-demethyl-4′-O-benzoyl-1-deoxypodophyllotoxin], the “ED50(mg/mL) for A549” value with A549 cell is given as 0.095 mg/mL. The “ED50(mg/mL) for SK-MEL-2” value in the assay on SK-MEL-2 cell came to 0.066 mg/mL.
Turning to `CCCCCCCCCCCCCCCCCCCC(=O)Oc1c(OC)cc(C2c3cc4c(cc3CC3COC(=O)C32)OCO4)cc1OC` (centres unmarked) [Compound 1c-24, 4′-demethyl-4′-O-eicosanoyl-1-deoxypodophyllotoxin], the “ED50(mg/mL) for A549” value with A549 cell is recorded as greater than 5 mg/mL. In addition, the “ED50(mg/mL) for SK-MEL-2” value in the assay with SK-MEL-2 cell is greater than 5 mg/mL.
For `CCCCCCCCCCCC(=O)Oc1c(OC)cc(C2c3cc4c(cc3CC3COC(=O)C32)OCO4)cc1OC` (centres unmarked) [Compound 1c-11, 4′-demethyl-4′-O-dodecanoyl-1-deoxypodophyllotoxin], in the assay on A549 cell, the “ED50(mg/mL) for A549” value was 0.030 mg/mL. For the same compound, the “ED50(mg/mL) for SK-MEL-2” value in the assay with SK-MEL-2 cell worked out at 0.025 mg/mL.
`CCCCCC/C=C\CCCCCCCC(=O)Oc1c(OC)cc(C2c3cc4c(cc3CC3COC(=O)C32)OCO4)cc1OC` (stereo not drawn) [Compound 1c-14, 4′-demethyl-4′-O-(cis-9′-hexadecenoyl)-1-deoxypodophyllo-toxin]: the “ED50(mg/mL) for A549” value with A549 cell came out at 0.733 mg/mL. The “ED50(mg/mL) for SK-MEL-2” value in the assay on SK-MEL-2 cell was 0.065 mg/mL.
As for `CCCCC/C=C\C/C=C\CCCCCCCCCC(=O)Oc1c(OC)cc(C2c3cc4c(cc3CC3COC(=O)C32)OCO4)cc1OC` (stereo not drawn) [Compound 1c-27, 4′-demethyl-4′-O-(cis-11′,14′-eicosadienoyl)-1-deoxypodophyllotoxin], the “ED50(mg/mL) for A549” value with A549 cell was 0.870 mg/mL. Besides, in the assay with SK-MEL-2 cell, the “ED50(mg/mL) for SK-MEL-2” value is recorded as 0.347 mg/mL.
Take `CCCCCCCCCCCCCCCCCC(=O)Oc1c(OC)cc(C2c3cc4c(cc3CC3COC(=O)C32)OCO4)cc1OC` (centres unmarked) [Compound 1c-15, 4′-demethyl-4′-O-octadecanoyl-1-deoxypodophyllotoxin]: in the assay with A549 cell, the “ED50(mg/mL) for A549” value is 2.670 mg/mL. Also, in the assay with SK-MEL-2 cell, the “ED50(mg/mL) for SK-MEL-2” value is given as greater than 5 mg/mL.
